≈ marks a conversion by molar mass, not a printed value.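 1) Cells in 96-well plates. 2) Compound, 48 h, 5 concentrations. 3) Linear interpolation between surrounding doses. 4) Unreached endpoint = highest concentration. Abbreviation: GI50, concentration required for 50% inhibition of growth. Definition used: TGI = concentration required for complete inhibition of growth.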 Non-standard residues stand in square brackets, D forms with d. Residues, ends and D or L forms follow the SMILES beside them. *: point of attachment. hSer = N[CH](CCO)C(=O)O; Boc = CC(C)(C)OC(=O)*
Experiments:
Test in all cases: NCI anticancer screen, dose series, 48 h
NCI-H460 lung = system: NCI-H460 lung
OVCAR-3 ovarian = system: OVCAR-3 ovarian
CCRF-CEM leukemia = system: CCRF-CEM leukemia
M14 melanoma = system: M14 melanoma
HCC-2998 colon = system: HCC-2998 colon
NCI-H522 lung = system: NCI-H522 lung
MOLT-4 leukemia = system: MOLT-4 leukemia
OVCAR-4 ovarian = system: OVCAR-4 ovarian
HL-60(TB) leukemia = system: HL-60(TB) leukemia
K-562 leukemia = system: K-562 leukemia
LOX IMVI melanoma = system: LOX IMVI melanoma
HCT-116 colon = system: HCT-116 colon
MCF7 breast = system: MCF7 breast
HCT-15 colon = system: HCT-15 colon
SR leukemia = system: SR leukemia
KM12 colon = system: KM12 colon
OVCAR-8 ovarian = system: OVCAR-8 ovarian
SK-MEL-2 melanoma = system: SK-MEL-2 melanoma
T-47D breast = system: T-47D breast
DU-145 prostate = system: DU-145 prostate
EKVX NSCLC = system: EKVX NSCLC
SK-MEL-5 melanoma = system: SK-MEL-5 melanoma
NCI-H23 lung = system: NCI-H23 lung
U251 CNS = system: U251 CNS
IGROV1 ovarian = system: IGROV1 ovarian
SK-OV-3 ovarian = system: SK-OV-3 ovarian
TK-10 renal = system: TK-10 renal
ACHN renal = system: ACHN renal
UO-31 renal = system: UO-31 renal
RXF 393 renal = system: RXF 393 renal
COLO 205 colon = system: COLO 205 colon
PC-3 prostate = system: PC-3 prostate
786-0 renal = system: 786-0 renal
MDA-MB-231 breast = system: MDA-MB-231 breast
UACC-62 melanoma = system: UACC-62 melanoma
UACC-257 melanoma = system: UACC-257 melanoma
SNB-19 CNS = system: SNB-19 CNS
RPMI-8226 leukemia = system: RPMI-8226 leukemia
SW-620 colon = system: SW-620 colon
CAKI-1 renal = system: CAKI-1 renal
HT29 colon = system: HT29 colon
MDA-MB-435 = system: MDA-MB-435
MALME-3M melanoma = system: MALME-3M melanoma
SF-268 CNS = system: SF-268 CNS
HOP-92 NSCLC = system: HOP-92 NSCLC
SF-539 CNS = system: SF-539 CNS
NCI/ADR-RES ovarian = system: NCI/ADR-RES ovarian
HOP-62 NSCLC = system: HOP-62 NSCLC
SN12C renal = system: SN12C renal
A549 NSCLC = system: A549 NSCLC
SNB-75 CNS = system: SNB-75 CNS
SK-MEL-28 melanoma = system: SK-MEL-28 melanoma
OVCAR-5 ovarian = system: OVCAR-5 ovarian
BT-549 breast = system: BT-549 breast
NCI-H226 lung = system: NCI-H226 lung
A498 renal = system: A498 renal
SF-295 CNS = system: SF-295 CNS

Compound `COCCC(NC(=O)C(CC(C)C)NC(=O)OC(C)(C)C)C(=O)OC` (stereo not drawn) (Boc-Leu-[hSer](Me)-OMe; configuration not given here) has a GI50 (NCI-H460 lung) of 70.1 µg/mL, a GI50 (OVCAR-3 ovarian) of 78.4 µg/mL and a GI50 (CCRF-CEM leukemia) of 17.8 µg/mL. The GI50 (M14 melanoma) was 48.6 µg/mL, the GI50 (HCC-2998 colon) was 50.1 µg/mL and the GI50 (NCI-H522 lung) was 31.3 µg/mL. It also gave a TGI (NCI-H522 lung) of 80.1 µg/mL, a GI50 (MOLT-4 leukemia) of 26 µg/mL and a TGI (MOLT-4 leukemia) of 70.2 µg/mL. The GI50 (OVCAR-4 ovarian) was 70.2 µg/mL, the GI50 (HL-60(TB) leukemia) was 37 µg/mL and the GI50 (K-562 leukemia) was 63.1 µg/mL. The GI50 (LOX IMVI melanoma) was 65.1 µg/mL, the GI50 (HCT-116 colon) was 91.6 µg/mL and the GI50 (MCF7 breast) was 59.7 µg/mL. For the same compound, the GI50 (HCT-15 colon) was 64.9 µg/mL, the GI50 (SR leukemia) was 31.2 µg/mL (≈ 86.7 µM) and the GI50 (KM12 colon) was 89.9 µg/mL. For the same compound, the GI50 (OVCAR-8 ovarian) was 88.3 µg/mL.
For `COc1cc(C2=C(C#Cc3ccccc3)COC2=O)cc(OC)c1OC`, the GI50 (NCI-H460 lung) was 3.3 µM, the TGI (NCI-H460 lung) was over 100 µM and the GI50 (SK-MEL-2 melanoma) was 5.35 µM. For the same compound, the TGI (SK-MEL-2 melanoma) was over 90.9 µM, the GI50 (T-47D breast) was 13.3 µM and the TGI (T-47D breast) was over 100 µM. It also gave a GI50 (DU-145 prostate) of 0.293 µM, a TGI (DU-145 prostate) of 18 µM and a GI50 (EKVX NSCLC) of 18.2 µM. The TGI (EKVX NSCLC) was 38.1 µM, the GI50 (SK-MEL-5 melanoma) was 2.56 µM and the TGI (SK-MEL-5 melanoma) was 20.1 µM. The GI50 (OVCAR-3 ovarian) was 2.1 µM, the TGI (OVCAR-3 ovarian) was 16.8 µM and the GI50 (CCRF-CEM leukemia) was 3.39 µM. For the same compound, the TGI (CCRF-CEM leukemia) was 59.3 µM, the GI50 (NCI-H23 lung) was 5.51 µM and the TGI (NCI-H23 lung) was 12.8 µM. For the same compound, the GI50 (M14 melanoma) was 1.77 µM, the TGI (M14 melanoma) was 11.7 µM and the GI50 (U251 CNS) was 1.91 µM. It also gave a TGI (U251 CNS) of 5.61 µM, a GI50 (HCC-2998 colon) of 12.4 µM and a TGI (HCC-2998 colon) of 25.8 µM. It also gave a TGI (IGROV1 ovarian) of over 100 µM, a GI50 (NCI-H522 lung) of 3.01 µM and a TGI (NCI-H522 lung) of over 33.7 µM. It also gave a GI50 (SK-OV-3 ovarian) of 20.4 µM, a TGI (SK-OV-3 ovarian) of over 100 µM and a GI50 (TK-10 renal) of 1.9 µM. It also gave a TGI (TK-10 renal) of 5.97 µM, a GI50 (ACHN renal) of 1.8 µM and a TGI (ACHN renal) of 8.16 µM. It also gave a GI50 (UO-31 renal) of 3.6 µM, a TGI (UO-31 renal) of over 32.7 µM and a GI50 (RXF 393 renal) of 1.35 µM. The TGI (RXF 393 renal) was over 100 µM, the GI50 (COLO 205 colon) was 4.89 µM and the TGI (COLO 205 colon) was over 94.6 µM. For the same compound, the GI50 (PC-3 prostate) was 1.05 µM, the TGI (PC-3 prostate) was 20.3 µM and the GI50 (MOLT-4 leukemia) was 30.1 µM. It also gave a TGI (MOLT-4 leukemia) of over 100 µM, a GI50 (OVCAR-4 ovarian) of 34.2 µM and a TGI (OVCAR-4 ovarian) of over 100 µM. The GI50 (786-0 renal) was under 0.0224 µM, the GI50 (MDA-MB-231 breast) was 0.492 µM and the TGI (MDA-MB-231 breast) was 2.95 µM. The GI50 (UACC-62 melanoma) was 0.288 µM, the TGI (UACC-62 melanoma) was 4.12 µM and the GI50 (UACC-257 melanoma) was 6.17 µM. The TGI (UACC-257 melanoma) was over 70.4 µM, the GI50 (SNB-19 CNS) was 7.27 µM and the TGI (SNB-19 CNS) was over 76 µM. For the same compound, the GI50 (HL-60(TB) leukemia) was 0.246 µM, the TGI (HL-60(TB) leukemia) was 3.36 µM and the GI50 (RPMI-8226 leukemia) was 1.34 µM. For the same compound, the TGI (RPMI-8226 leukemia) was 4.05 µM, the GI50 (SW-620 colon) was 0.755 µM and the GI50 (CAKI-1 renal) was 20.3 µM. For the same compound, the TGI (CAKI-1 renal) was over 100 µM, the GI50 (K-562 leukemia) was 0.629 µM and the TGI (K-562 leukemia) was over 100 µM. The GI50 (LOX IMVI melanoma) was 0.738 µM, the TGI (LOX IMVI melanoma) was 3.92 µM and the GI50 (HT29 colon) was 3.02 µM. The TGI (HT29 colon) was over 100 µM, the GI50 (MDA-MB-435) was 0.302 µM and the GI50 (MALME-3M melanoma) was 3.72 µM. The TGI (MALME-3M melanoma) was 33.1 µM, the GI50 (SF-268 CNS) was 4.59 µM and the TGI (SF-268 CNS) was over 100 µM. The GI50 (HOP-92 NSCLC) was 2.77 µM, the TGI (HOP-92 NSCLC) was 10.6 µM and the GI50 (SF-539 CNS) was 0.646 µM. For the same compound, the TGI (SF-539 CNS) was 4.87 µM, the GI50 (NCI/ADR-RES ovarian) was 5.43 µM and the TGI (NCI/ADR-RES ovarian) was 22.2 µM. The GI50 (HOP-62 NSCLC) was 0.706 µM, the TGI (HOP-62 NSCLC) was 2.61 µM and the GI50 (SN12C renal) was 0.261 µM. For the same compound, the TGI (SN12C renal) was 1.38 µM, the GI50 (HCT-116 colon) was 0.69 µM and the TGI (HCT-116 colon) was 4.01 µM. It also gave a GI50 (MCF7 breast) of 0.193 µM, a TGI (MCF7 breast) of over 100 µM and a GI50 (A549 NSCLC) of 14.2 µM. It also gave a TGI (A549 NSCLC) of over 100 µM, a GI50 (SNB-75 CNS) of 4.98 µM and a TGI (SNB-75 CNS) of over 100 µM. The TGI (SK-MEL-28 melanoma) was over 100 µM, the GI50 (OVCAR-5 ovarian) was 7.89 µM and the TGI (OVCAR-5 ovarian) was over 57.9 µM. For the same compound, the GI50 (HCT-15 colon) was 1.3 µM, the TGI (HCT-15 colon) was 9.39 µM and the GI50 (BT-549 breast) was 3.26 µM. The TGI (BT-549 breast) was 63.1 µM, the GI50 (KM12 colon) was 1.87 µM and the TGI (KM12 colon) was 10.5 µM. The GI50 (NCI-H226 lung) was 1.73 µM, the TGI (NCI-H226 lung) was 4.6 µM and the GI50 (OVCAR-8 ovarian) was 5.37 µM. The TGI (OVCAR-8 ovarian) was over 45.4 µM, the GI50 (A498 renal) was 41.1 µM and the TGI (A498 renal) was over 100 µM. The GI50 (SF-295 CNS) was 0.687 µM.
